# Entries after “also recorded” stand apart in the source; their conditions may differ. Where a name gives a salt, the structure may show the parent alone. Read-outs that look alike come from different tables or passages of the source.
# Experiments:
# [1] = biological target: T1, α2-adrenergic receptor (Homo sapiens, UniProt P08913); experiment: biochemical
# T1 sequence (P08913 1-465): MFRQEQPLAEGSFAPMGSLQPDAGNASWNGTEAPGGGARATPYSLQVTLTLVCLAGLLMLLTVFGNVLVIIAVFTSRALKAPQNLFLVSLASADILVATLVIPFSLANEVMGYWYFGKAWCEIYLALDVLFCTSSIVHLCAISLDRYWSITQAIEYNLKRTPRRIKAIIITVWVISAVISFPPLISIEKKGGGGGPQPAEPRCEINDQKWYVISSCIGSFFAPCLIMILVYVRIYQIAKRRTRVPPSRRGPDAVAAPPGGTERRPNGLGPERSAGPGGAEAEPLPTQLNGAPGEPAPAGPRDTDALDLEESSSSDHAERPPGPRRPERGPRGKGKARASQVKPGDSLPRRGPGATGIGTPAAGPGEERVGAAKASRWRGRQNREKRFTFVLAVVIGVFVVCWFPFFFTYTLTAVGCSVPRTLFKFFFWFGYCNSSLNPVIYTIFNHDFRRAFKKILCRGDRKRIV
# Protocol: (§1) Human platelet plasma membranes were prepared by sonication of human platelet concentrates (Red Cross) followed by centrifugation on a discontinuous sucrose gradient (14%/34% by weight) for 3 hours at 140,000 x g. The membrane fraction was collected from the interface of the heavy and light sucrose, and will be herein designated as purified platelet plasma membrane (PPM).
# (§2) Bound radioactivity was measured by scintillation counting of the GF/C filter in OCF scintillation cocktail (Amerscham) on a Beckman LR 8100 scintillation counter.
# (§3) IC50 is the concentration of compound which reduces binding to 50% of the initial value.
# [2] = biological target: T1, α2-adrenergic receptor; settings: human platelet membranes, comparison with other drugs
# Protocol: as §1, §2, §3
# [3] = tested on: peripheral α-adrenergic receptors; settings: used as an antihypertensive; initial stimulation of peripheral α-adrenergic receptors; cited from earlier work
# [4] = tested on: heart; settings: in vivo; cited from earlier work
# [5] = tested on: α2-receptor sites; settings: central nervous system; cited from earlier work
# [6] = tested on: bulbar sympathetic cardioaccelerator and sympathetic vasoconstrictor centers; settings: in vivo; cited from earlier work
# [7] = tested on: α2-adrenergic receptor sites; settings: cited from earlier work
# [8] = patient; cited from earlier work
# [9] = tested on: choroid of the eye; settings: rats; clonidine hydrochloride; cited from earlier work
compound,measurement,setting,value
"Clc1cc(I)cc(Cl)c1N=C1NCCN1 [p-Iodoclonidine, 2-(2,6-dichloro-4-iodophenylimino-2)imidazolidine]",IC50,[1],1.3 nM
same,"relative affinity / potency in competition for α2-adrenergic receptor sites, in words",[2],greater affinity for the receptor than clonidine
same,"relative affinity / potency in competition for α2-adrenergic receptor sites, in words",[2]; listed as p-iodoclonidine,"more potent than either p-aminoclonidine or clonidine in competition for α2 -adrenergic receptor sites; also recorded: more potent (IC50 =1.3) than clonidine, p-aminoclonidine, or yohimbine; also recorded: binds better than epinephrine"
"Clc1cccc(Cl)c1N=C1NCCN1 [Clonidine, 2-(2,6-dichlorophenylamine)-2-imidazoline]",initial vascular effect,[3],transient vasoconstriction
same,tissue localization,[4],known to localize in the heart
same,response to activation of α2-receptor sites,[5],response similar to norepinephrine in the central nervous system
same,sympathetic outflow from the brain,[6],decrease in sympathetic outflow from the brain
same,binding site specificity,[7],binds preferentially to α2 -adrenergic receptor sites
Clc1cccc(Cl)c1N=C1NCCN1 [clonidine hydrochloride],route of excretion of drug and metabolites,[8],leave the patient primarily through urinary discharge
same,buildup in the choroid of the eye,[9],significant buildup of clonidine occurs in the choroid of the eye
same,retinal degeneration,[9],possibility of retinal degeneration

# Reference: patent US4883649A (The University of Michigan, priority 1988, dated 1989)
